{"source": "paper PMC7151078", "about": "“A Novel NMDA Receptor Antagonist Protects against Cognitive Decline Presented by Senescent Mice” (Pharmaceutics, 2020)", "key": {"SAMR1 and SAMP8 mice [1]": {"test_system": "SAMR1 and SAMP8 mice", "experiment": "Object location test (OLT)", "assay_type": "in vivo, mouse", "conditions": "both treated mice groups (SR1 and SP8), 5 mg/kg/day", "description": "Male SAMR1 and SAMP8 mice (n = 41) with 20-weeks-old were used to carry out cognitive and molecular analysis. The animals were randomly divided into four groups: SAMR1 control (SR1 Ct) group (n = 11), SAMP8 control (SP8 Ct) group (n = 8), SAMR1 treated with RL-208 (SR1 RL-208 (5 mg/Kg)) group (n = 10) and SAMP8 treated with RL-208 (SP8 RL-208 (5 mg/Kg)) group (n = 12). Animals had free access to food and water, under standard temperature conditions (22±2 °C) and 12h:12h light-dark cycles (300 lux/0 lux). RL-208, (3,4,8,9-tetramethyltetracyclo[4.4.0.0^3,9.0^4,8]dec-1-yl)-methylamine hydrochloride, (5 mg/kg/day) was administered through drinking water for four weeks before starting the cognitive test. RL-208 was administered up to euthanasia (Figure 1A). Water consumption was controlled each week for each cage and strain. Afterwards, RL-208 concentration was adjusted accordingly to reach the optimal dose for each cage. […] Trials were recorded using a camera mounted above the open field area, and the total exploration time was determined by scoring the amount of time (seconds) spent sniffing the object in the new location (TN) and the object in the old location (TO). In order to evaluate the cognitive performance, the DI was calculated, which is defined as (TN-TO)/(TN+TO)."}, "SAMR1 and SAMP8 mice [2]": {"test_system": "SAMR1 and SAMP8 mice", "experiment": "Three-chamber test (TCT)", "assay_type": "in vivo, mouse", "conditions": "SAMP8 strain, 5 mg/kg/day, vs SP8 Ct", "description": "Male SAMR1 and SAMP8 mice (n = 41) with 20-weeks-old were used to carry out cognitive and molecular analysis. The animals were randomly divided into four groups: SAMR1 control (SR1 Ct) group (n = 11), SAMP8 control (SP8 Ct) group (n = 8), SAMR1 treated with RL-208 (SR1 RL-208 (5 mg/Kg)) group (n = 10) and SAMP8 treated with RL-208 (SP8 RL-208 (5 mg/Kg)) group (n = 12). Animals had free access to food and water, under standard temperature conditions (22±2 °C) and 12h:12h light-dark cycles (300 lux/0 lux). RL-208, (3,4,8,9-tetramethyltetracyclo[4.4.0.0^3,9.0^4,8]dec-1-yl)-methylamine hydrochloride, (5 mg/kg/day) was administered through drinking water for four weeks before starting the cognitive test. RL-208 was administered up to euthanasia (Figure 1A). Water consumption was controlled each week for each cage and strain. […]\nThe three-chamber test (TCT) was used to assess preference for social novelty (time spent with a novel intruder in contrast with a familiar one) and sociability (time spent with rodents). […] Each test consists of 15 minutes and is recorded with a camera. […] The time spent in each chamber was evaluated. Then, an intruder (same-sex and age) was added to one of the rooms in a metal cup, and behaviour is recorded for 10 minutes. The time spent in each chamber is evaluated as well as the time interacting with the intruder (e.g., sniffing, rears, entries in each chamber)."}, "[3]": {"experiment": "Microsomal stability in mice microsomes", "assay_type": "in vitro ADME", "conditions": "37 °C, 0-60 min", "description": "The human, rat, and mice microsomes employed were purchased from Tebu-Xenotech. The compound was incubated at 37 °C with the microsomes in a 50 mM phosphate buffer (pH = 7.4) containing 30 mM MgCl2, 10 mM NADP, 100 mM glucose-6-phosphate and 20 U/mL glucose-6-phosphate-dehydrogenase. Samples (75 µL) were taken from each well at 0, 10, 20, 40, and 60 min and transferred to a plate containing 4 °C 75 µL acetonitrile. Then, 30 µL of 0.5% formic acid in water was added to improve the chromatographic conditions. The plate was centrifuged (46,000× g, 30 min) and supernatants were taken and analyzed in a UPLC-MS/MS (Xevo-TQD, Waters) by employing a BEH C18 column and an isocratic gradient of 0.1% formic acid in water: 0.1% formic acid acetonitrile (60:40) for 5 minutes and a flow of 0.25 mL/min. The metabolic stability of the compounds was calculated from the logarithm of remaining compounds at each time point studied."}}}
{"smiles": "CC12CC3CC1(C)C1(C)CC3(CN)CC21C.Cl", "note": "[RL-208, (3,4,8,9-tetramethyltetracyclo [4.4.0.0^3,9.0^4,8]dec-1-yl)methylamine hydrochloride]", "values": [{"measurement": "OLT spatial memory (DI)", "setting": "SAMR1 and SAMP8 mice [1]", "result": "significant higher DI values"}, {"measurement": "time sniffing the intruder (sociability)", "setting": "SAMR1 and SAMP8 mice [2]", "result": "significantly augmented"}, {"measurement": "microsomal stability", "setting": "[3]", "result": "good"}]}
